Results: patent publication US20100099847A1 (Kyowa Hakko Bio Co., Ltd., priority 2006, published 2010)

How the values were obtained:
[1] = volume median diameter
Procedure: This is synonymous with volume median diameter, and it was measured using a laser diffraction and scattering particle diameter analyzer, the LMS-24 SK Laser Micron Sizer (Seishin Enterprise Co. Ltd.) and expressed as a cumulative 50% volume particle diameter.

[2] = width of approximately 300 crystals
Procedure: The crystals were observed and photographed using a VH-8000 digital microscope (Keyence Corporation). The width of approximately 300 crystals was measured and calculations performed.

| Average particle diameter [1] [μm] | Average width [2] [μm] | SMILES |
| --- | --- | --- |
| 9 |  | N[C@@H](CCC(=O)N[C@@H](CS)C(=O)NCC(=O)O)C(=O)O [Commercial product A, glutathione] |
|  | 3 | N[C@@H](CCC(=O)N[C@@H](CS)C(=O)NCC(=O)O)C(=O)O [commercial product B, glutathione] |
